Reference: paper PMC7928338, “Distribution of Glyphosate-Resistance in Echinochloa crus-galli Across Agriculture Areas in the Iberian Peninsula” (Frontiers in Plant Science, 2021)
Where two headings read alike, the source gives them in different places.

How the values were obtained:
[1] = test system: T1, 5-enolpyruvylshikimate-3-phosphate synthase (EPSPS), glyphosate-susceptible populations; test: EPSPS activity in leaf extract, inorganic phosphate release; assay type: biochemical, Echinochloa crus-galli; conditions: population E2 (susceptible); glyphosate 0-1000 μM; read-out: I50
T1 construct: native enzyme in leaf extract; hexaploid species, homoeologous EPSPS copies not distinguished

[2] = test system: 5-enolpyruvylshikimate-3-phosphate synthase (EPSPS), glyphosate-resistant (R) and very resistant (VR) populations; conditions: read-out: I50, glyphosate 0-1000 μM, stated gain
Description: EPSPS activity in leaf extract, inorganic phosphate release on 5-enolpyruvylshikimate-3-phosphate synthase (EPSPS), glyphosate-resistant (R) and very resistant (VR) populations

O=C(O)CNCP(=O)(O)O [glyphosate]
IC50 [1]: 0.8 µM
IC50 ([2]; population E7): 11.7 µM
IC50 ([2]; population E9): 18.1 µM
IC50 ([2]; population E10, possible EPSPS overexpression): 54.8 µM
IC50 ([2]; population E12, possible EPSPS overexpression): 45.6 µM
